Source: US20240182460A1, “ALLOSTERIC CHROMENONE INHIBITORS OF PHOSPHOINOSITIDE 3-KINASE (PI3K) FOR THE TREATMENT OF DISEASE” (PETRA PHARMA CORPORATION, priority 2022, published 2024)

Test: Metabolic stability and intrinsic clearance in human liver microsomes (MICS)
Format: in vitro ADME
Conditions: human, microsomes, pH 7.4
Method: Metabolic Stability and Intrinsic Clearance in Liver Microsomes (MICS)
One objective of this assay is to measure in vitro metabolic stability of a test compound in liver microsomes of one or more different species. The concentration of a control compound in the reaction system is evaluated by LC/MS/MS for calculating intrinsic clearance of a test compound and estimating the stability of the control compound and test compound in liver microsomes of one or more different species.
Microsomes (MICS). Human Liver Microsomes (HLM), Monkey Liver Microsomes (MKLM), Dog Liver Microsomes (DLM), Rat Liver Microsomes (RLM), and Mouse Liver Microsomes (MLM) are obtained at a concentration of 20 mg/mL protein from commercial sources and stored in a −80° C. freezer. Prior to use, liver microsomes are removed from the freezer and allowed to thaw in a 37° C. water bath and then stored on wet ice.
Stock Solutions. Test Compound (TC) Stock Solutions are prepared in DMSO at a concentration of 10 mM and stored for later use. Positive Control (PC) Stock Solutions of verapamil·HCL (FW: 491.1 g/mol) in DMSO are prepared at a concentration of 10 mM (4.91 mg/mL), and stored at the condition same as the stock solutions of test compounds.
Phosphate Buffer. Phosphate Buffer (100 mM, pH 7.4) is prepared by combining a Solution A and a Solution B as follows.
To prepare Solution A, 7.098 g of disodium hydrogen phosphate was combined with 500 mL of pure water and sonicated to dissolve. To prepare the Solution B, 3.400 g of potassium dihydrogen phosphate was combined with 250 mL of pure water and sonicated to dissolve. Solution A was placed on a stirrer and Solution B was slowly added into Solution A until the pH reached 7.4.
NADPH Solution. A 10 mM NADPH Solution is prepared by dissolving NADPH (MW: 833.4 g/mol) at 8.334 mg/mL in phosphate buffer (100 mM, pH 7.4).
Microsome Master Solution. A Microsome Master Solution is prepared by adding 6.25 μL microsomes (20 mg/mL) to 216.25 μL Phosphate Buffer (100 mM). The final concentration is Phosphate Buffer (100 mM); microsomes (0.5 mg/mL).
Dilution of Stock Solutions. The TC Stock Solutions (10 mM in DMSO) and the PC Stock Solutions (10 mM in DMSO) are diluted by adding 3 μL of the TC Stock Solution or the PC Stock Solution to 297 μL of 50% acetonitrile/50% water.
Incubation. Two separated experiments were performed as follows. a) With Cofactors (NADPH): 25 μL of 10 mM NADPH was added to the incubations. The final concentrations of
microsomes and NADPH were 0.5 mg/mL and 1 mM, respectively. b) Without Cofactors (NADPH): 25 μL of 100 mM Phosphate buffer was added to the incubations. The final concentration of microsomes was 0.5 mg/mL. The mixture was pre-warmed at 37° C. for 10 minutes.
The reaction was started with the addition of 2.5 μL of 100 μM PC solution or TC solutions.
Verapamil was used as PC in this study. The final concentration of test compound or control compound was 1 μM. The incubation solution was incubated in water batch at 37° C.
Reaction Termination. Aliquots of 30 μL were taken from the reaction solution at 0.5, 5, 15, 30 and 60 minutes and added to plates. The reaction was stopped by the addition of 5 volumes of cold acetonitrile and a solution containing 100 nM alprazolam, 200 nM caffeine and 100 nM tolbutamide.
Sampling. The plates containing the terminated reactions were centrifuged at 4000 rpm for 30 minutes. Supernatant of each compound (40 μL) was transferred into a 96-well analysis plate.
Four compound samples are pooled together into one cassette and diluted by adding 160 μL of pure water. All incubations are performed in duplicate.
Analysis and Data Processing. Quantitative LC-MS analysis is performed, and peak areas are determined from extracted ion chromatograms. Percent parent remaining was calculated from peak area of TC or PC. The slope value, k, is determined by linear regression of the natural logarithm of percent parent remaining vs. incubation time curve. […]

Microsomal CLint at 1 μM, < 50 µL/min/mg:
Cc1cc([C@@H](C)Oc2ccc(Cl)nc2S(N)(=O)=O)c2oc(-c3ccn[nH]3)c(C)c(=O)c2c1 [Example 8C, 6-Chloro-3-[(1R)-1-[3,6-dimethyl-4-oxo-2-(1H-pyrazol-5-yl)chromen-8-yl]ethoxy]pyridine-2-sulfonamide]
Cc1cc([C@@H](C)Oc2ccccc2S(N)(=O)=O)c2oc(-c3cnn(C)c3)c(C)c(=O)c2c1 [Example 103C, 2-[(1R)-1-[3,6-Dimethyl-2-(1-methylpyrazol-4-yl)-4-oxo-chromen-8-yl]ethoxy]benzenesulfonamide]
Cc1cc([C@@H](C)Oc2ccc(Cl)nc2C(N)=O)c2oc(-c3cnn4ncccc34)c(C)c(=O)c2c1 [Example 39C, 6-Chloro-3-[(1R)-1-(3,6-dimethyl-4-oxo-2-pyrazolo[1,5-b]pyridazin-3-yl-chromen-8-yl)ethoxy]pyridine-2-carboxamide]
Cc1cc([C@@H](C)Oc2ccc(Cl)nc2C(N)=O)c2oc(-c3ccc4c(c3)C(C)(C)OC(=O)N4)c(C)c(=O)c2c1 [Example 47C, 6-Chloro-3-[(1R)-1-[2-(4,4-dimethyl-2-oxo-1H-3,1-benzoxazin-6-yl)-3,6-dimethyl-4-oxo-chromen-8-yl]ethoxy]pyridine-2-carboxamide]
Cc1cc([C@@H](C)Oc2ccc(Cl)nc2C(N)=O)c2oc(-c3ccc4[nH]c(=O)ccc4c3)c(C)c(=O)c2c1 [Example 105A, 6-Chloro-3-[(1R)-1-[3,6-dimethyl-4-oxo-2-(2-oxo-1H-quinolin-6-yl)chromen-8-yl]ethoxy]pyridine-2-carboxamide]
Cc1cc([C@@H](C)Oc2ccc(Cl)nc2C(N)=O)c2oc(-c3cc4cn(C)nc4cc3F)c(C)c(=O)c2c1 [Example 42C, 6-Chloro-3-[(1R)-1-[2-(6-fluoro-2-methyl-indazol-5-yl)-3,6-dimethyl-4-oxo-chromen-8-yl]ethoxy]pyridine-2-carboxamide]
Cc1cc([C@@H](C)Oc2ccc(Cl)nc2C(=O)NOC(C)(C)C)c2oc(-c3ccc4nn(C)cc4c3)c(C)c(=O)c2c1 [Example 27A, N-tert-Butoxy-6-chloro-3-[(1R)-1-[3,6-dimethyl-2-(2-methylindazol-5-yl)-4-oxo-chromen-8-yl]ethoxy]pyridine-2-carboxamide]
Cc1cc([C@@H](C)Oc2ccc(F)nc2C(N)=O)c2oc(-c3ccc4nn(C)cc4c3)cc(=O)c2c1 [Example 19B, 6-Fluoro-3-[(1R)-1-[6-methyl-2-(2-methylindazol-5-yl)-4-oxo-chromen-8-yl]ethoxy]pyridine-2-carboxamide]
Cc1cc([C@@H](C)Oc2ccc(Cl)nc2-c2noc(=O)[nH]2)c2oc(-c3cnc4scnc4c3)c(C)c(=O)c2c1 [Example 1B, 3-[6-Chloro-3-[(1R)-1-(3,6-dimethyl-4-oxo-2-thiazolo[5,4-b]pyridin-6-yl-chromen-8-yl)ethoxy]-2-pyridyl]-4H-1,2,4-oxadiazol-5-one]
Cc1cc([C@@H](C)Oc2ccc(Cl)nc2S(N)(=O)=O)c2oc(-c3cnn(C)c3)c(Cl)c(=O)c2c1 (single isomer, unassigned) [Example 111C]
COc1cc(-c2oc3c([C@@H](C)Oc4ccc(Cl)nc4C(N)=O)cc(C)cc3c(=O)c2C)cc2cn(C)nc12 [Example 44C, 6-Chloro-3-[(1R)-1-[2-(7-methoxy-2-methyl-indazol-5-yl)-3,6-dimethyl-4-oxo-chromen-8-yl]ethoxy]pyridine-2-carboxamide]
Cc1cc([C@@H](C)Oc2ccc(Cl)nc2C(N)=O)c2oc(-c3cnc4nn(C)cc4c3)c(C)c(=O)c2c1 [Example 137A, 6-Chloro-3-[(1R)-1-[3,6-dimethyl-2-(2-methylpyrazolo[3,4-b]pyridin-5-yl)-4-oxo-chromen-8-yl]ethoxy]pyridine-2-carboxamide]
Cc1cc([C@@H](C)Oc2ccc(Cl)nc2-c2noc(=O)[nH]2)c2oc(-c3cnc4c(c3)OCCO4)c(C)c(=O)c2c1 [Example 47A, 3-[6-Chloro-3-[(1R)-1-[2-(2,3-dihydro-[1,4]dioxino[2,3-b]pyridin-7-yl)-3,6-dimethyl-4-oxo-chromen-8-yl]ethoxy]-2-pyridyl]-4H-1,2,4-oxadiazol-5-one]
Cc1cc([C@@H](C)Oc2ccc(Cl)nc2-c2noc(=O)[nH]2)c2oc(-c3cnn4c3CCC4)c(C)c(=O)c2c1 [Example 102A, 3-[6-Chloro-3-[(1R)-1-[2-(5,6-dihydro-4H-pyrrolo[2,1-e]pyrazol-3-yl)-3,6-dimethyl-4-oxo-chromen-8-yl]ethoxy]-2-pyridyl]-4H-1,2,4-oxadiazol-5-one]
Cc1cc([C@@H](C)Oc2ccc(Cl)nc2-c2noc(=O)[nH]2)c2oc(C3CC3)c(C)c(=O)c2c1 [Example 64A, 3-[6-Chloro-3-[(1R)-1-(2-cyclopropyl-3,6-dimethyl-4-oxo-chromen-8-yl)ethoxy]-2-pyridyl]-4H-1,2,4-oxadiazol-5-lone]
Cc1cc([C@@H](C)Oc2ccc(Cl)nc2S(N)(=O)=O)c2oc(-c3cnn(CC4(O)CC4)c3)c(C)c(=O)c2c1 [Example 128C, 6-Chloro-3-[(1R)-1-[2-[1-[(1-hydroxycyclopropyl)methyl]pyrazol-4-yl]-3,6-dimethyl-4-oxo-chromen-8-yl]ethoxy]pyridine-2-sulfonamide]
Cc1cc([C@@H](C)Oc2ccc(Cl)nc2C(N)=O)c2oc(-c3cncnc3)c(C)c(=O)c2c1 [Example 67A, 6-Chloro-3-[(1R)-1-(3,6-dimethyl-4-oxo-2-pyrimidin-5-yl-chromen-8-yl)ethoxy]pyridine-2-carboxamide]
Cc1cc([C@@H](C)Oc2ccc(Cl)nc2-c2noc(=O)[nH]2)c2oc(-c3ccc4nn(C)cc4c3)c(C)c(=O)c2c1 [Example 18A, 3-[6-Chloro-3-[(1R)-1-[3,6-dimethyl-2-(2-methylindazol-5-yl)-4-oxo-chromen-8-yl]ethoxy]-2-pyridyl]-4H-1,2,4-oxadiazol-5-one]
Cc1cc([C@@H](C)Oc2cccnc2C(=O)NOC(C)(C)C)c2oc(-c3ccc4nn(C)cc4c3)c(C)c(=O)c2c1 [Example 24A, N-tert-Butoxy-3-[(1R)-1-[3,6-dimethyl-2-(2-methylindazol-5-yl)-4-oxo-chromen-8-yl]ethoxy]pyridine-2-carboxamide]
Cc1cc([C@@H](C)Oc2ccc(Cl)nc2S(N)(=O)=O)c2oc(-c3ccc4nn(C)cc4n3)c(C)c(=O)c2c1 [Example 5B, 6-Chloro-3-[(1R)-1-[3,6-dimethyl-2-(2-methylpyrazolo[4,3-b]pyridin-5-yl)-4-oxo-chromen-8-yl]ethoxy]pyridine-2-sulfonamide]

Same assay, conditions: pH 7.4; human liver microsomes 0.5 mg/mL, 1 μM compound; read-out: intrinsic clearance in human MICS

Microsomal CLint at 1 μM, < 50 µL/min/mg:
Cc1cc([C@@H](C)Oc2cccnc2-c2noc(=O)[nH]2)c2oc(-c3ccccc3)c(C)c(=O)c2c1 [Example 3, 3-[3-[(1R)-1-(3,6-Dimethyl-4-oxo-2-phenyl-chromen-8-yl)ethoxy]-2-pyridyl]-4H-1,2,4-oxadiazol-5-one]
Cc1cc([C@@H](C)Oc2cccc(F)c2-c2noc(=O)[nH]2)c2oc(-c3ccccc3)c(C)c(=O)c2c1 [Example 5, 3-[2-[(1R)-1-(3,6-Dimethyl-4-oxo-2-phenyl-chromen-8-yl)ethoxy]-6-fluoro-phenyl]-4H-1,2,4-oxadiazol-5-one]
